Laboratory results as given in patent US20120277265A1, “NOVEL POLYQUINOLINE DERIVATIVES AND THE THERAPEUTIC USE THEREOF” (CENTRE NATIONAL DE LA RECHERCHE SCIENTIFIQUE (C.N.R.S.), priority 2005, published 2012).

Key:
[1] = Stability constants of competing chelators for Zn(II) (NIST / Sillen-Martell; log Kapp by Eq. 1-2); conditions: at pH = 7.4, by Eq. 1 and 2
Text: log Kapp=log K-log α (Eq. 1)
α=[H^+]^n/(Ka1×Ka2×Ka3× . . . Kan)+[H^+]^n-1/(Ka1×Ka2×Ka3× . . . Kan-1)+ . . . +[H^+]/Ka1+1 (Eq. 2)

[2] = 25° C., cited from earlier work; for log K1 (stability constant for the MLc species), Zn(II): ionic strength 0.1-0.2, metal ion to chelator 1/1

| SMILES | log K1 app, Zn(II) [1] | log K1 (stability constant for the MLc species), Zn(II) [2] | log K2 (stability constant for the M(Lc)2 species), Zn(II) ([2]; ionic strength 0.1-0.2) |
| --- | --- | --- | --- |
| O=C(O)CN(CC(=O)O)CC(=O)O [NTA, nitrilotriacetic acid] | 8.0 | 10.5 | 3.8 |
| NCCNCCNCCN [Trien, triethylenetetramine] | 7.8 | 11.9 | – |
